This is an account of results in paper PMC11503657 (Chemical Science, 2024).

One assay has as its target CuZnAβ1–16 (Homo sapiens, UniProt P05067). It counts as biochemical. Conditions: pH 7.4.
For a further assay, the target named is CuAβ1–16 complex (Homo sapiens, UniProt P05067). It counts as biochemical. Conditions: pH 7.4.

Consider `O=C(O)CN(CCN(CC(=O)O)CC(=O)O)CC(=O)O` [EDTA, 2,2′,2′′,2′′′-(ethane-1,2-diyldinitrilo)tetraacetic acid], for which, on CuZnAβ1–16, the “ROS production: % of Asc consumption in 30 min” value is on record as 100% and the “ROS production: % of ROS arrest” value is on record as 0%. For the same compound, on CuAβ1–16 complex, the “ROS production: % of Asc consumption in 30 min” value is 11.3% and the “ROS production: % of ROS arrest” value is recorded as 88.7%.
